Experimental data: patent US20100210649A1, “PYRIDAZINONES AND FURAN-CONTAINING COMPOUNDS” (Sloan-Kettering Institute for Cancer Research, priority 2006, published 2010)

How the values were obtained:
[1] = test system: H2030 cells; assay: [3H]-thymidine incorporation assay, H2030; format: cell-based, human; settings: increasing concentrations, 24 hours
Procedure: FIG. 1. SKI-267077 blocks DNA synthesis. H2030 cells were treated with the indicated concentration of SKI-267077 for 24 h and then the incorporation of ^3H-thymidine into DNA was determined
[^3H]-thymidine incorporation assay. Cells were seeded in 12-well plates at a density of 100 000 cells/well and treated with inhibitors for 24 hours. H3-thymidine (3 μCi/mL) was then added for 3 hours. Cells were washed twice with PBS, fixed with cold 10% TCA (in PBS) for 30 min then lysed with 0.5% NaOH/0.5% SDS. DNA was scraped from the wells and the amount of H3-thymidine incorporated determined by liquid scintillation counting.
SKI-267077 inhibits DNA synthesis. […] H2030 cells were treated with increasing concentrations of SKI-267077 for 24 hours and then incorporation of ^3H-thymide into DNA determined (FIG. 1).

[2] = test system: H2030 cells; assay: Cell cycle analysis (FACS), H2030; format: cell-based, human; settings: 24 hours
Procedure: FIGS. 2A-2B. SKI-267077 induces cell cycle arrest. H2030 cells were treated with SKI-267077 for 24 h. Cell cycle progression was analyzed by FACS analysis. FIG. 2A: Percent of cells in S-phase. FIG. 2B: percent of cells in G1 phase.
Cell cycle analysis. For cell cycle analysis, cells were plated at a density of 500,000 cells per well in 6-well plates. Attached cells were treated with drugs for 24 h. Cells were then collected, washed with PBS and fixed in 70% ethanol for 1 h. For FACS analysis, fixed cells were washed with cold PBS resuspended in PBS containing 200 μg/mL propidium iodide and 0.1% sodium citrate. Flow cytometry was performed on a Becton-Dickinson FACSCalibur flow cytometer and data the processed using FlowJo software.
SKI-267077 induces cell cycle arrest at the G1 phase. Cell cycle progression in the presence of SKI-267077 was determined by FACS analysis of H2030 cells that were treated for 24 hours.

[3] = test system: AKT isoforms; assay: Phosphoprotein array, AKT; format: cell-based; settings: cells treated for 24 hours; PI-3kinase signaling pathway
Procedure: FIG. 43A-43C. A phosphoprotein array was used to determine which signaling pathways were affected by treatment of cells with SKI-267077. […] A phosphoprotein array (R and D Systems) was used to measure the level of phosphorylation of cellular proteins. Protein phosphorylation was determined according to the manufacturer's instructions.

**Q.** For `O=c1c(Cl)c(Cl)cnn1-c1ccc(Cl)cc1Cl` [compound 267077], which “incorporation of 3H-thymidine into DNA (DNA synthesis)” value [1] is on record?
**A.** dose-dependent decrease in DNA synthesis

**Q.** And the “percent of cells in the G1 phase” value [2]?
**A.** increase in the percent of cells in the induce G1 phase

**Q.** What about the “percent of cells in the S phase” value [2] of the same compound?
**A.** reduction of the percent of cells in the S phase

**Q.** And the “phosphorylation of AKT isoforms” value [3]?
**A.** blocked phosphorylation of all three AKT isoforms
